Test results as given in ChEMBL document CHEMBL1201862, “PubChem BioAssay data set” (2004).
Values belong to the molecule of their own block, whether it stands above or below them. Activity calls are given as the source filed them.

Experiments:
[1] = molecular target: G-protein coupled receptor 55 (Homo sapiens, UniProt Q9Y2T6); experiment: blockers of GPR55 signalling, imaged – imaging, image-based, counter-screen for GPR35 antagonist project, SAR follow-up (AID 2397); format: functional
BJ [2] = experiment: BJ-TERT fibroblast viability loss – cell-based, RAS-independent, luminescence, dose response (AID 1933); format: functional; conditions: Homo sapiens
BJ [3] = experiment: cells; format: functional, cell-based; conditions: Homo sapiens
[4] = DRD fibroblast viability loss – cell-based, non-viral oncogenic, luminescence, dose response (AID 1934); format: functional; conditions: Homo sapiens
[5] = Luminescence Cell-Based Dose Retest to Confirm Inhibitors of Cancer Stem Cells. [Related pubchem assays (depositor defined):AID2717, AID2721]; format: functional; conditions: Homo sapiens
[6] = HEK-293T viability loss after treatment – luminescence, T-cell screen hits, cytotoxicity control for TCR NF-kB inhibitor project, dose response (AID 489026); format: functional, cell-based;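 also: cells exposed to compound about 14 hours before the viability readout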
[7] = viability loss of HMLE_sh_eGFP cells – cell-based, luminescence, counter-screen for HMLE_sh_ECad selective toxicity project, dose response (AID 463074); format: functional, Homo sapiens;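 also: HMLE human mammary epithelial cells expressing control shRNA against eGFP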
BJ [8] = experiment: growth inhibition of engineered Ras-driven BJ cells – cell-based, alamar blue fluorescence, cherrypicked samples, dose response (AID 2631); format: functional; conditions: Homo sapiens;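 also: confirmatory dose-response assay in RAS-dependent BJ fibroblasts engineered with TERT, LT and ST, with cytotoxicity read by fluorescence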
[9] = molecular target: T1, Tyrosine-protein phosphatase non-receptor type 7 (Homo sapiens, UniProt P35236); format: functional
T1 sequence (P35236 whole entry): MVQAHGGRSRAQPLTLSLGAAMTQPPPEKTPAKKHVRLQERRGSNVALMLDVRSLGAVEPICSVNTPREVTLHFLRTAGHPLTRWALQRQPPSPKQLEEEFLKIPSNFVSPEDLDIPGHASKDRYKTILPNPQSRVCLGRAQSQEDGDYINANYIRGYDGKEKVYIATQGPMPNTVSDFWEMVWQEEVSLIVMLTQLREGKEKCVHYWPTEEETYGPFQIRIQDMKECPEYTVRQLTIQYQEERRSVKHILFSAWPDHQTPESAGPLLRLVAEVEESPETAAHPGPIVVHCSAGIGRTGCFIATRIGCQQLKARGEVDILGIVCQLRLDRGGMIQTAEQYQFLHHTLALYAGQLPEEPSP

[10] = molecular target: T2, Tyrosine-protein phosphatase non-receptor type 22 (Homo sapiens, UniProt Q9Y2R2); format: functional
T2 sequence (Q9Y2R2 whole entry): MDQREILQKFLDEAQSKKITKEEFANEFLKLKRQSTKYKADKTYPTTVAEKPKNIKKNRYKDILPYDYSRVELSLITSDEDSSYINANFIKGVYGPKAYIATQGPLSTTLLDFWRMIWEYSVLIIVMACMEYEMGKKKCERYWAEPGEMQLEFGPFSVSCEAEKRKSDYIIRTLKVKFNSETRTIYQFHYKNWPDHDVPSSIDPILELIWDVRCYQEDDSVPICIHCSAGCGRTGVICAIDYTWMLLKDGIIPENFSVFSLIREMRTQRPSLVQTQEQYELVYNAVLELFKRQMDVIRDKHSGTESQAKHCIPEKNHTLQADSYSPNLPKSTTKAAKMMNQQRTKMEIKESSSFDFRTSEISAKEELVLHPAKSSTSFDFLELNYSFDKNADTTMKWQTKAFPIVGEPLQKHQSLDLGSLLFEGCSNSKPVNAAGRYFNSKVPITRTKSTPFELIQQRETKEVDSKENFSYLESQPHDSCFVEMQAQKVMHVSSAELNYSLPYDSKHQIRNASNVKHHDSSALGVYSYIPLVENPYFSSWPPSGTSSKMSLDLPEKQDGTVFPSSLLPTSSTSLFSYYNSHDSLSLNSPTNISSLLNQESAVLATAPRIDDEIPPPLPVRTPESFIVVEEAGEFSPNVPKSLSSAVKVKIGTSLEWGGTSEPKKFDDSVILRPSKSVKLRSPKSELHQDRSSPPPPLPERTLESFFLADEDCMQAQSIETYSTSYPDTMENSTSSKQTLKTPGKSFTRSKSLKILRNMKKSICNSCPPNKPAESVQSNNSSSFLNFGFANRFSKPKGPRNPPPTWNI

[11] = molecular target: T2, Tyrosine-protein phosphatase non-receptor type 22; format: functional; remark: listed apart in the source

Chain of G-protein coupled receptor 55 (Q9Y2T6 whole entry): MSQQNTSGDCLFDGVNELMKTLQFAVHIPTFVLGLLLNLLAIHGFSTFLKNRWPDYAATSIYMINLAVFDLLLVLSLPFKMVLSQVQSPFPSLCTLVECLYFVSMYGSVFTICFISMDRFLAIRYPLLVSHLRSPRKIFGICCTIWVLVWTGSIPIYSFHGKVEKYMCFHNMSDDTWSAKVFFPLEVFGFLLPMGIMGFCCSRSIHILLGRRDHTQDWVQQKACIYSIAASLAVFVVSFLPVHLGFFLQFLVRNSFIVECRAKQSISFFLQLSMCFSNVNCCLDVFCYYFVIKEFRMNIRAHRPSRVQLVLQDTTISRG

- IC50 [1]: > 32 µM (inactive)
SMILES: Clc1ccccc1Cn1ncc2c(N3CCN(c4ccccc4)CC3)ncnc21

SMILES: Cc1ccc(C)c(NS(=O)(=O)c2ccc(-c3cnc(C4CC4)o3)cc2)c1
- EC50 (BJ [2]): 150 nM (active)
- EC50 (BJ [3]): 298 nM (active)
- EC50 [4]: < 120 nM (active)
- AC50 [5]: < 0.16 µM (active)
- IC50 [6]: 54 µM (inactive)
- AC50 [7]: 8.44 µM (inconclusive)
- EC50 (BJ [8]): < 104 nM (active)

- IC50 [9]: > 79.4 µM (inactive)
- IC50 [10]: > 79.4 µM (inactive)
- IC50 [11]: > 79.4 µM (inactive)
SMILES: O=C1OC(c2ccc(Br)cc2)=N/C1=C\c1ccco1

SMILES: CN(C)/N=C/c1ccc(Sc2ccc([N+](=O)[O-])cc2[N+](=O)[O-])o1
- AC50 [5]: 22.5 µM (active)
- AC50 [7]: 30.2 µM (active)
